Assay [1] deals with T1, D(1A) dopamine receptor (Homo sapiens, UniProt P21728). Description: Potency in adenylate cyclase functional assay against Dopamine receptor D1.
Assay [2] concerns the target T1, D(1A) dopamine receptor. Description: Binding affinity to Dopamine receptor D1 by using radioligand [125I]SCH-23982 in HEK cells. The assay is classed as cell-based, HEK293.
For assay [3], the target named is Dopamine D1 and D2 receptor (Homo sapiens) (UniProt P14416+P21728). Description: Ratio of Ki for human dopamine-2(D-2) and dopamine-1(D-1) receptors. The assay is classed as protein assay.
Chain of Dopamine D1 and D2 receptor (Homo sapiens) (P14416 whole entry, looked up): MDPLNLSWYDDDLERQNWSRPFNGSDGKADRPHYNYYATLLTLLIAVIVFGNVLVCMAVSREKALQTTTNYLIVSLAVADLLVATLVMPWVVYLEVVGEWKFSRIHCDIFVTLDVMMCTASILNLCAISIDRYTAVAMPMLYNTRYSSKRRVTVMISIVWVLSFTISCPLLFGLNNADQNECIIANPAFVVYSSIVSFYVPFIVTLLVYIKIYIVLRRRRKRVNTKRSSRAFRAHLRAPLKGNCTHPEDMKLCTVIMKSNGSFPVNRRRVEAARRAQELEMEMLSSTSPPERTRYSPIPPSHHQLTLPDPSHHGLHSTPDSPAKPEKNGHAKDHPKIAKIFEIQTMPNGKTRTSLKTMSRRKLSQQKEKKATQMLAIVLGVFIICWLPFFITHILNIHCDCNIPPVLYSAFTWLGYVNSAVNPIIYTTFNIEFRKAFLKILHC
Chain of Dopamine D1 and D2 receptor (Homo sapiens) (P21728 whole entry, looked up): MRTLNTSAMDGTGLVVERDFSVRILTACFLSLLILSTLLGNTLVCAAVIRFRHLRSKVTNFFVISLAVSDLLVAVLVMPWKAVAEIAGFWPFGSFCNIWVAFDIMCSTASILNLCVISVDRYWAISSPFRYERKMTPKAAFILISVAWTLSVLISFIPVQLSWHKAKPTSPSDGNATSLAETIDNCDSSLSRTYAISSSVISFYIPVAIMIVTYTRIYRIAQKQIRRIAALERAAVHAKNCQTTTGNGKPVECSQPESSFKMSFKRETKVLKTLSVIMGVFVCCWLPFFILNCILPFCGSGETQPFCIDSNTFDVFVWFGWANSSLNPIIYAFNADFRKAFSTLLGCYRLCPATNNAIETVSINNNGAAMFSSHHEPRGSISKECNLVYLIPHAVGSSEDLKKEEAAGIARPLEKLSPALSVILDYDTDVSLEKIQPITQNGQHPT
The target of assay [4] is T1, D(1A) dopamine receptor. Briefly: Intrinsic activity relative against Dopamine receptor D1. Type of assay: functional.
Another assay concerns the target D(2) dopamine receptor (Homo sapiens, UniProt P14416). Description: Binding affinity to human Dopamine receptor D2 by using radioligand [3H]spiperone in LTK cells. Type of assay: cell-based.

Chain of D(2) dopamine receptor (P14416 whole entry): as the sequence (P14416 whole entry, looked up) above
T1 sequence (P21728 whole entry): as the sequence (P21728 whole entry, looked up) above

The EC50 is the midpoint of the concentration-response curve. The low end stands for greater potency, the high end for weaker potency. In general, Ki refers to a dissociation constant, usually derived from enzyme kinetics or from competition with a known ligand. A low value points to a stronger hold on the target. Take `COc1ccc2c(n1)CN[C@@H]1CCc3cc(O)c(O)cc3[C@@H]21`: the EC50 on D(1A) dopamine receptor [1] came out at 8.8 nM. Further, the Ki on D(1A) dopamine receptor [2] worked out at 49 nM; on D(2) dopamine receptor it was 520 nM. The Ratio in assay [3] was 11. Besides, on D(1A) dopamine receptor [4], the Intrinsic activity was found to be 114%.
The matching figures for `Oc1cc2c(cc1O)[C@H]1c3ccc(F)nc3CN[C@@H]1CC2`: 18 nM, 180 nM, 2200 nM, 12 and 141%.
`Cc1ccc2c(n1)CN[C@@H]1CCc3cc(O)c(O)cc3[C@@H]21` came in with an EC50 at D(1A) dopamine receptor [1] of 23 nM. In addition, the Ki came to 140 nM at D(1A) dopamine receptor [2] and 1400 nM at D(2) dopamine receptor. Besides, the Ratio in assay [3] was 10. Also, at D(1A) dopamine receptor [4], the Intrinsic activity stood at 121%.
Taken in the same sequence, the figures for `Oc1cc2c(cc1O)[C@H]1c3cnccc3CN[C@@H]1CC2` were 320 nM, 1100 nM, 1300 nM, 1 and 81%.
With `Oc1cc2c(cc1O)[C@H]1c3cncc(F)c3CN[C@@H]1CC2`, the response at D(1A) dopamine receptor [1] was half-maximal at 800 nM (EC50). Moreover, the results for the Ki at D(1A) dopamine receptor [2] and at D(2) dopamine receptor were 390 nM and 890 nM, respectively. The Ratio in assay [3] amounted to 2. Further, the Intrinsic activity at D(1A) dopamine receptor [4] amounted to 126%.
In turn, `Cc1cnc2c(c1)[C@@H]1c3cc(O)c(O)cc3CC[C@H]1NC2` showed an EC50 on D(1A) dopamine receptor [1] of 110 nM. The inhibition constant Ki on D(1A) dopamine receptor [2] was 240 nM; on D(2) dopamine receptor, 12000 nM. Moreover, the Ratio in assay [3] is 50. The Intrinsic activity at D(1A) dopamine receptor [4] was 156%.
As for `Oc1cc2c(cc1O)[C@H]1c3ccccc3CN[C@@H]1CC2`, the Intrinsic activity on D(1A) dopamine receptor [4] was 121%.
Regarding `CCCc1ccc2c(n1)CN[C@@H]1CCc3cc(O)c(O)cc3[C@@H]21`, on D(1A) dopamine receptor [1], a half-maximal effect (EC50) was put at 8.6 nM. The Ki was determined as 45 nM at D(1A) dopamine receptor [2] and 450 nM at D(2) dopamine receptor. For the same compound, in assay [3], the Ratio turned out to be 10. Besides, the Intrinsic activity at D(1A) dopamine receptor [4] amounted to 116%.
In turn, `Oc1cc2c(cc1O)[C@H]1c3cccnc3CN[C@@H]1CC2` displayed an EC50 on D(1A) dopamine receptor [1] of 6.7 nM. The Ki on D(1A) dopamine receptor [2] was found to be 65 nM; at D(2) dopamine receptor, 2500 nM. Moreover, the Ratio in assay [3] was found to be 38. Further, the Intrinsic activity at D(1A) dopamine receptor [4] is 125%.
On D(1A) dopamine receptor [1], `Cc1cc2c(nc1C)CN[C@@H]1CCc3cc(O)c(O)cc3[C@@H]21` returned an EC50 of 120 nM. In addition, the Ki was determined as 280 nM at D(1A) dopamine receptor [2] and 9100 nM at D(2) dopamine receptor. Also, the Ratio in assay [3] is 33. Further, at D(1A) dopamine receptor [4], the Intrinsic activity was 134%.
Taken in the same sequence, the figures for `Oc1cc2c(cc1O)[C@H]1c3ccncc3CN[C@@H]1CC2` were 38 nM, 140 nM, 4400 nM, 31 and 131%.
On to `Oc1cc2c(cc1O)[C@H]1c3cc4c(nc3CN[C@@H]1CC2)CCCC4`, for which, at D(1A) dopamine receptor [1], the EC50 came out at 63 nM. Further, the Ki at D(1A) dopamine receptor [2] is 560 nM; at D(2) dopamine receptor it was 3600 nM. Moreover, the Ratio in assay [3] amounted to 6. Moreover, the Intrinsic activity at D(1A) dopamine receptor [4] worked out at 136%.
For the compound `CCCCc1cnc2c(c1)[C@@H]1c3cc(O)c(O)cc3CC[C@H]1NC2`, on D(1A) dopamine receptor [1], a half-maximal response (EC50) required 180 nM. Besides, the Ki was determined as 890 nM at D(1A) dopamine receptor [2] and 1900 nM at D(2) dopamine receptor. Besides, the Ratio in assay [3] stood at 2. Besides, the Intrinsic activity on D(1A) dopamine receptor [4] was found to be 118%.
With `CCCc1cc2c(s1)CN[C@@H]1CCc3cc(O)c(O)cc3[C@@H]21`, the Ratio in assay [3] worked out at 14. On D(1A) dopamine receptor [4], the Intrinsic activity came out at 125%.
With `Cc1cncc2c1CN[C@@H]1CCc3cc(O)c(O)cc3[C@@H]21`, the EC50 at D(1A) dopamine receptor [1] is 230 nM. The Ki at D(1A) dopamine receptor [2] was found to be 1100 nM; on D(2) dopamine receptor, 400 nM. Also, in assay [3], the Ratio was determined as 0.36. In addition, at D(1A) dopamine receptor [4], the Intrinsic activity was 75%.
